Measurements from patent EP3928779A1 (Chugai Seiyaku Kabushiki Kaisha, priority 2014, dated 2016).

Tested on: rat small-intestinal brush border membrane vesicles
Experiment: Inhibitory effect on 33PO4 uptake into rat small-intestinal brush border membrane vesicles (rapid filtration method)
Format: biochemical
Conditions: 33PO4 uptake into rat small-intestinal BBMVs; test compound 1 µM; reacted for 60 seconds
Method: Brush border membrane vesicles (BBMVs) were prepared using the upper region of the small intestine of each Wistar female rat (4-5 weeks old). […] The ^33PO4 transport activity of the small-intestinal BBMVs was determined by the rapid filtration method. […] Then, ice-cold buffer C (110 mM NaCl, 1 mM KH2PO4, and 10 mM HEPES (pH 7.5)) was added to each reaction mixture, which was immediately suctionfiltered through a Millipore filter. The filter was washed with buffer C, and each sample was then dissolved in a liquid scintillator. The amount of ^33PO4 uptake into BBMVs was measured using a liquid scintillation counter. […]

SMILES | Rate of uptake inhibition (%) (1 µM)
C[C@]12CCCN1N(Cc1cccc(F)c1F)C(=O)C(C(=O)Nc1ccc(C(F)(F)F)cc1-c1cnc(Cl)cn1)=C2O [Example 74] | 82%
C[C@]12CCCN1N(Cc1cccc(F)c1F)C(=O)C(C(=O)Nc1ccc(Br)cc1F)=C2O [Example 75] | 74%
C[C@]12CCCN1N(Cc1cccc(F)c1F)C(=O)C(C(=O)Nc1ccc(Cl)cc1F)=C2O [Example 76] | 77%
C[C@]12CCCN1N(Cc1cccc(F)c1F)C(=O)C(C(=O)Nc1ccc(Br)cc1)=C2O [Example 77] | 80%
C[C@]12CCCN1N(Cc1cccc(F)c1F)C(=O)C(C(=O)Nc1ccc(Br)cn1)=C2O [Example 78] | 71%
C[C@]12CCCN1N(Cc1cccc(F)c1F)C(=O)C(C(=O)Nc1ccc(Cl)cn1)=C2O [Example 79] | 71%
COc1cc(C)c(-c2cc(C(F)(F)F)ccc2NC(=O)C2=C(O)[C@@]3(C)CCCN3N(Cc3cccc(F)c3F)C2=O)cn1 [Example 80] | 75%
COc1cncc(-c2cc(C(F)(F)F)ccc2NC(=O)C2=C(O)[C@@]3(C)CCCN3N(Cc3cccc(F)c3F)C2=O)c1 [Example 81] | 74%
C[C@]12CCCN1N(Cc1cccc(F)c1F)C(=O)C(C(=O)Nc1ccc(C(F)(F)F)cc1-c1cncc(C#N)c1)=C2O [Example 82] | 100%
C[C@]12CCCN1N(Cc1cccc(F)c1F)C(=O)C(C(=O)Nc1ccc(C(F)(F)F)cc1-c1cnc3ccccc3c1)=C2O [Example 83] | 90%
C[C@]12CCCN1N(Cc1cccc(F)c1F)C(=O)C(C(=O)Nc1ccc(C(F)(F)F)cc1-c1cc(Cl)cnc1Cl)=C2O [Example 84] | 91%
C[C@]12CCCN1N(Cc1cccc(F)c1F)C(=O)C(C(=O)Nc1ccc(C(F)(F)F)cc1-c1ccc(C(F)(F)F)nc1Br)=C2O [Example 85] | 71%
C[C@]12CCCN1N(Cc1cccc(F)c1F)C(=O)C(C(=O)Nc1ccc(Cl)cc1-c1ccc(C(F)(F)F)nc1)=C2O [Example 86] | 83%
CN(C)S(=O)(=O)c1ccc(-c2nc(C(F)(F)F)ccc2NC(=O)C2=C(O)[C@@]3(C)CCCN3N(Cc3cccc(F)c3F)C2=O)cc1 [Example 87] | 84%
C[C@]12CCCN1N(Cc1cccc(F)c1F)C(=O)C(C(=O)Nc1ccc(C(F)(F)F)cc1)=C2O [Example 89] | 67%
C[C@]12CCCN1N(Cc1cccc(F)c1F)C(=O)C(C(=O)Nc1ccc(C(F)(F)F)cc1-c1ccc(C(F)(F)F)nc1)=C2O [Example 90] | 91%
C[C@]12CCCN1N(Cc1cccc(F)c1F)C(=O)C(C(=O)Nc1ccc(C(F)(F)F)cc1-c1cncc(C(F)(F)F)c1)=C2O [Example 91] | 87%
COCCOc1cc(NC(=O)C2=C(O)[C@@]3(C)CCCN3N(Cc3cccc(F)c3F)C2=O)c(-c2cccc(OC)c2OC)cc1C(F)(F)F [Example 92] | 81%
COc1cccc(-c2cc(C(F)(F)F)ccc2NC(=O)C2=C(O)[C@@]3(C)CCCN3N(Cc3cccc(F)c3F)C2=O)n1 [Example 93] | 56%
C[C@]12CCCN1N(Cc1cccc(F)c1F)C(=O)C(C(=O)Nc1ccc(C(F)(F)F)cc1-c1cnc(C#N)c([N+](=O)[O-])c1)=C2O [Example 99, (4aR)-N-[2-(6-Cyano-5-nitropyridin-3-yl)-4-(trifluoromethyl)phenyl]-1-[(2,3-difluorophenyl)methyl]-4-hydroxy-4a-methyl-2-oxo-6,7-dihydro-5H-pyrrolo[1,2-b]pyridazine-3-carboxamide] | 82%
C[C@]12CCCN1N(Cc1cccc(F)c1F)C(=O)C(C(=O)Nc1ccc(C(F)(F)F)cc1-c1cc(C#N)ncn1)=C2O [Example 100] | 69%
Cc1cc(-c2cc(C(F)(F)F)ccc2NC(=O)C2=C(O)[C@@]3(C)CCCN3N(Cc3cccc(F)c3F)C2=O)cnc1C#N [Example 101] | 57%
